Laboratory results as given in ChEMBL document CHEMBL4732263 (Bioorg Med Chem, 2021).
In brackets after ≈: the same amount, converted by molar mass.

Legend:
in vitro [1] = conditions: human, Caco-2
in vitro [2] = conditions: human, Caco-2; remark: listed apart in the source
in vitro [3] = conditions: human, Caco-2; remark: listed apart in the source
[4] = human, microsomes, 1 h, 1 µM
[5] = mouse, microsomes, 1 h, 1 µM
physchem [6] = conditions: octanol/water, pH 7.4
physchem [7] = conditions: HCl, pH 2, pH 2
physchem [8] = conditions: PBS, pH 6.5, pH 6.5
in vitro [9] = conditions: human, liver microsomes
in vitro [10] = conditions: human, liver microsomes; remark: listed apart in the source
in vitro [11] = conditions: mouse, liver microsomes
in vitro [12] = conditions: mouse, liver microsomes; remark: listed apart in the source
[13] = octanol/water, pH 7.4

For `COC(=O)c1ccccc1-c1c2ccc(=N)cc-2oc2cc(N)ccc12`, the Papp A→B at 2 h, 20 µM (in vitro [1]) was 1.4 ×10⁻⁶ cm/s, the Papp B→A at 2 h, 20 µM (in vitro [2]) was 12 ×10⁻⁶ cm/s and the efflux ratio at 2 h, 20 µM (in vitro [3]) was 8.4.
In the case of `N=C(N)NC(=O)c1nc(-c2ccc(C(F)(F)F)cc2)c(N2CCCCCC2)nc1N`, the CL free [4] is reported as 355 µL/min/mg, the CL free [5] is reported as 1020 µL/min/mg and the logD (physchem [6]) is reported as over 5.3. It also gave a solubility kinetic (physchem [7]) of 25 µg/mL (≈ 59.3 µM), a solubility kinetic (physchem [8]) of 3.1 µg/mL (≈ 7.36 µM) and a half-life at 1 h, 1 µM (in vitro [9]) of 76 min. It also gave a microsomal CLint at 1 h, 1 µM (in vitro [10]) of 23 µL/min/mg, a half-life at 1 h, 1 µM (in vitro [11]) of 26 min and a microsomal CLint at 1 h, 1 µM (in vitro [12]) of 66 µL/min/mg.
Work on `N=C(N)NC(=O)c1nc(-c2ccco2)c(N2CCCCCC2)nc1N` yielded a CL free [4] of 687 µL/min/mg, a CL free [5] of 687 µL/min/mg and a solubility kinetic (physchem [7]) of 50 µg/mL (≈ 146 µM). For the same compound, the solubility kinetic (physchem [8]) was 6.3 µg/mL (≈ 18.3 µM), the half-life at 1 h, 1 µM (in vitro [9]) was 50 min and the microsomal CLint at 1 h, 1 µM (in vitro [10]) was 35 µL/min/mg. The half-life at 1 h, 1 µM (in vitro [11]) was 13 min and the microsomal CLint at 1 h, 1 µM (in vitro [12]) was 138 µL/min/mg.
`N=C(N)NC(=O)c1nc(-c2cc3ccccc3s2)c(N2CCCCCC2)nc1N` gave a CL free [4] of 433 µL/min/mg, a CL free [5] of 1283 µL/min/mg and a logD (physchem [6]) of over 5.3. For the same compound, the solubility kinetic (physchem [7]) was 12.5 µg/mL (≈ 30.5 µM), the solubility kinetic (physchem [8]) was 3.1 µg/mL (≈ 7.57 µM) and the half-life at 1 h, 1 µM (in vitro [9]) was 62 min. For the same compound, the microsomal CLint at 1 h, 1 µM (in vitro [10]) was 28 µL/min/mg, the half-life at 1 h, 1 µM (in vitro [11]) was 21 min and the microsomal CLint at 1 h, 1 µM (in vitro [12]) was 83 µL/min/mg.
`N=C(N)NC(=O)c1nc(-c2cncnc2)c(N2CCCCCC2)nc1N` showed a logD [13] of 2.8, a CL free [4] of 32 µL/min/mg and a CL free [5] of 27 µL/min/mg. It also gave a solubility kinetic (physchem [7]) of over 100 µg/mL, a solubility kinetic (physchem [8]) of 12.5 µg/mL (≈ 35.2 µM) and a half-life at 1 h, 1 µM (in vitro [9]) of 86 min. For the same compound, the microsomal CLint at 1 h, 1 µM (in vitro [10]) was 20 µL/min/mg, the half-life at 1 h, 1 µM (in vitro [11]) was 100 min and the microsomal CLint at 1 h, 1 µM (in vitro [12]) was 17 µL/min/mg.
